Tests used:
[1] = tested on: HeLa cells; set-up: method as in PMID 21747753, PMID 21673896, PMID 31671793; conditions: obtained from marine-derived fungi; cited from earlier work
[2] = molecular target: tyrosinase (Agaricus bisporus, UniProt C7FF04); experiment: Enzyme kinetic analysis (V-S curve, Lineweaver–Burk plot, secondary replot); type: biochemical
Protocol: The inhibition type was measured by the reaction rate–substrate concentration curve and the Lineweaver–Burk plot. L-tyrosine solutions were diluted to different concentrations (5 mM, 7.5 mM, 9 mM, 12 mM, 15 mM) as the substate. The inhibition constant was determined by the second plot of the y-intercept versus the concentration of the inhibitor. The values of Kis were calculated from the following formula: y-intercept=1/Vm1+[I]/Kis
The inhibition constant Kis was obtained from the plot of the y-intercept versus the concentration of 10, which was calculated to be 0.04 mM (Figure 5C).

[3] = tested on: Aβ1–42; set-up: method as in PMID 31520649; conditions: pair of enantiomeric compounds from corn silk; cited from earlier work

tyrosinase, sequence (C7FF04 1-392): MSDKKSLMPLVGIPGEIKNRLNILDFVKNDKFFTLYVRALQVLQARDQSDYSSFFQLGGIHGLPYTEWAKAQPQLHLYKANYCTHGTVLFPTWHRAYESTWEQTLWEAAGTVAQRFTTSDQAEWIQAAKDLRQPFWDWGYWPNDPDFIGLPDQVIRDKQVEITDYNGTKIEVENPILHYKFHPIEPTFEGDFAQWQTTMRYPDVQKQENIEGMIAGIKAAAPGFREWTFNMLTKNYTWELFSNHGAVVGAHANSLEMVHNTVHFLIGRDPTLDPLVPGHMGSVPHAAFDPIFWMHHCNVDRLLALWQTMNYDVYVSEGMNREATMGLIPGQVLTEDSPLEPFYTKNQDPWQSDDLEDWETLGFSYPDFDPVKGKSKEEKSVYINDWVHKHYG

| SMILES | cytotoxic activity against HeLa cells [1] | inhibition type on tyrosinase ([2]; L-tyrosine 5–15 mM, Lineweaver–Burk plot) | change of Km and Vm with increasing inhibitor concentration ([2]; ratio Km/Vm remained unchanged) | anti-Aβ1–42 aggregation activity [3] |
| --- | --- | --- | --- | --- |
| COC(=O)C(=O)c1c[nH]c2ccccc12 [Compound 10, (1H-indol-3-yl) oxoacetic acid methyl ester] | weak | uncompetitive inhibitor | decreased | – |
| COC(=O)CCCCCCC[C@H]1C=CC(=O)O1 [Compound 9, Cornilkone C] | – | – | – | weak |

Source: publication PMC10381909, “Secondary Metabolites from the Cultures of Medicinal Mushroom Vanderbylia robiniophila and Their Tyrosinase Inhibitory Activities” (Journal of Fungi, 2023)
